Measured values as given in patent publication US12295983B2, “Use of extracts of the leaves of lemon verbena (Aloysia citriodora) for increasing the neuronal, cerebral availability of neurotransmitters selected from the group of serotonin, dopamine, noradrenaline” (Finzelberg GMBH & Co. KG, priority 2018, dated 2025).
Read-outs that look alike come from different tables or passages of the source.

Key:
[1] = molecular target: T1, serotonin reuptake in synaptosomes from rat cortex (Rattus norvegicus, UniProt P31652); assay: Serotonin reuptake test with [3H]-serotonin in freshly isolated synaptosomes; format: biochemical; details: ratio of reuptake IC50 values
T1 construct: Freshly isolated synaptosomes from rats were used; from tissue; host or cells: synaptosomes from rat cortex
T1 sequence (P31652 whole entry): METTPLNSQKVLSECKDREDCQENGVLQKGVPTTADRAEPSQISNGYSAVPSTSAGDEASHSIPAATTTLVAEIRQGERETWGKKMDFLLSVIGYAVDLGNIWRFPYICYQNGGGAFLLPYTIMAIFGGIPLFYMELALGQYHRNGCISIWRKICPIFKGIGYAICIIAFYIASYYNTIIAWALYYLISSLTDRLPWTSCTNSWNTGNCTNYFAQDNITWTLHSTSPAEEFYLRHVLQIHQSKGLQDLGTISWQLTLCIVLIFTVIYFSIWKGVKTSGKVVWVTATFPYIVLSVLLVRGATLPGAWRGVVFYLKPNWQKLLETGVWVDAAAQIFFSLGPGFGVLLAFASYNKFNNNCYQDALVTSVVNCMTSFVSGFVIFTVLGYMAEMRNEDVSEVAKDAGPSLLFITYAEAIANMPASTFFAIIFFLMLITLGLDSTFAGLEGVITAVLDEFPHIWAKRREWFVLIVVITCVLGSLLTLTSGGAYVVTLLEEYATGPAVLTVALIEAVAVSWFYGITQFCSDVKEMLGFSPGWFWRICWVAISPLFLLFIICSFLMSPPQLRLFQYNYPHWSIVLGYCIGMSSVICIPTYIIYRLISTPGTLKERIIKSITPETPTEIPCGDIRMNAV
Protocol: Freshly isolated synaptosomes from rats were used according to Perovic and Müller [Perovic S, Müller W E, 1995, Arzneimittelforschung 45; 1145-1148] for a dopamine reuptake test, and a serotonin reuptake test, and a noradrenaline reuptake test. [^3H]-dopamine, [^3H]-noradrenaline and [^3H]-serotonin, respectively, served as the ligands. The test substance was incubated with the synaptosomes and the corresponding ligand for 15 min at 37° C. in the dark. The samples were then transferred to GF/C filter plates, and washed cold twice, and dried, before the filter-bound radioactivity was measured with a microtitration plate counter (Microbeta, Wallac, Finland). For determining the 100% reuptake, the experiment was performed without test substances. The measured value for incubation with corresponding inhibitors (GBR12909 in the dopamine reuptake inhibition, protriptyline in the noradrenaline reuptake inhibition, and imipramine hydrochloride for the serotonin reuptake inhibition) was considered as a 0% uptake.

[2] = molecular target: T1, serotonin reuptake in synaptosomes from rat cortex; details: read-out: Serotonin (IC50 μg/ml); literature value, Markowitz et al.; cited from earlier work
[3] = test system: noradrenaline reuptake in synaptosomes from rat cortex; details: literature value, cited from earlier work
[4] = molecular target: T2, dopamine reuptake in synaptosomes from rat cortex (Rattus norvegicus, UniProt P23977); details: read-out: Dopamine (IC50 μg/ml), literature value, cited from earlier work
T2 construct: Freshly isolated synaptosomes from rats were used; from tissue; host or cells: synaptosomes from rat cortex
T2 sequence (P23977 whole entry): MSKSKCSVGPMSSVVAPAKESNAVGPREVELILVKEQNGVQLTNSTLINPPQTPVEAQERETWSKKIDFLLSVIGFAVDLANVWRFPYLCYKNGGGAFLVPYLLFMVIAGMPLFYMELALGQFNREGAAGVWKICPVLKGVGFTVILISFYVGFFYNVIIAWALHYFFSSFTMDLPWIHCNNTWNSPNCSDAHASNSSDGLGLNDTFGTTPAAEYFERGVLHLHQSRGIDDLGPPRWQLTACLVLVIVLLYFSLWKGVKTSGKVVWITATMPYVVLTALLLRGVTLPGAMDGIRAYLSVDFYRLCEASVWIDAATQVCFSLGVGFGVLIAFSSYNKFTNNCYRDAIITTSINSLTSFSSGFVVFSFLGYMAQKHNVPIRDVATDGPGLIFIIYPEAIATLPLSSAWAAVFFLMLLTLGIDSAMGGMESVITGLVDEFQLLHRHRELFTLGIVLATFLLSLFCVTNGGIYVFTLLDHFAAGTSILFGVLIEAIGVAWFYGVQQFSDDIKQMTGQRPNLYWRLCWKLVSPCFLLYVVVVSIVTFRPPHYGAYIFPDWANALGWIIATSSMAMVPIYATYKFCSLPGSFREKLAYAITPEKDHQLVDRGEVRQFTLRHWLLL

[5] = test system: transgenic C. elegans strain CL4176 expressing human β-amyloid (Aβ 1-42); assay: β-Amyloid-induced toxicity (paralysis, PT50) in C. elegans model; format: in vivo, Caenorhabditis elegans; details: 200 μg/ml; negative control 31.0 ± 0.4
Protocol: In order to test the effect on β-amyloid toxicity, the transgenic C. elegans strain CL4176, which can express human β-amyloid (Aβ 1-42), was employed. Aβ expression can be induced by increasing the temperature. Age-synchronized and treated worms were incubated at 16° C. for 48 hours. After increasing the temperature to 25° C. and incubation for 24 hours, the worms began to get paralyzed because of the toxicity of the Aβ oligomer. The paralysis was evaluated every 2 hours (experimental set-up according to Heiner et al.: Sideritis scardica extracts inhibit the aggregation of α-synuclein and β-amyloid peptides in Caenorhabditis elegans used as a model for neurodegenerative diseases. Planta Medica 81—PW_127, 2015). Substances that counteract this toxic effect of β-amyloid lead to a slower or later paralysis of the animals. Such substances delay the neurodegeneration, inter alia, in Alzheimer's dementia. The median (PT50), which is the time when exactly 50% of the nematodes were paralyzed, was used as a comparative value.

[6] = test system: transgenic C. elegans strain CL2355 expressing human β-amyloid pan-neuronally; assay: β-Amyloid-induced neuronal dysfunction, chemotaxis towards benzaldehyde; format: in vivo, Caenorhabditis elegans
Protocol: β-Amyloid species can damage neurons and trigger a dysfunction of neuronally controlled behavior. The transgenic C. elegans strain CL2355 expresses human β-amyloid on a pan-neuronal level. This leads to cognitive disorders, such as reduced chemotactic movement towards an attractant (benzaldehyde). In the experiments, the chemotaxis index, i.e., the proportion of worms moved towards the attractant on the agar plate, was measured. […] The experiment was performed in accordance with […] et al.

[7] = test system: dopaminergic neurons of transgenic C. elegans strain BZ555; assay: Protection of dopaminergic neurons from 6-OHDA-induced degeneration (GFP fluorescence); format: in vivo, Caenorhabditis elegans; details: worms + 50 mM 6-OHDA + 100 μg/ml; negative control 34.3 ± 4.3
Protocol: 6-Hydroxydopamine (6-OHDA) damages dopaminergic neurons, which is used in different animal models. The transgenic C. elegans strain BZ555 expresses green fluorescent protein in dopaminergic neurons. Thus, the 6-OHDA-induced neurodegeneration or the reduction thereof can be quantified by fluorescence microscopy. The worms were exposed to 50 mM 6-OHDA, which reduces the fluorescence intensity of the neurons because of the degeneration thereof. Bupropione, a selective noradrenaline and dopamine reuptake inhibitor (NDRI), serves as the positive control. Through the inhibition of the noradrenaline (NA) or dopamine (DA) transporters (reuptake), bupropion prevents the neurotoxin 6-OHDA from getting into and damaging the neurons.

For COC(=O)C(c1ccccc1)C1CCCCN1 (stereo not shown) [Methylphenidate], the “activity ratio of serotonin to noradrenaline (factor)” value [1] is listed as 86, the IC50 [2] is listed as 18.5 µM and the “Noradrenaline (IC50 μg/ml)” value ([3]; Markowitz et al.) is listed as 0.052 µg/mL. For the same compound, the “Noradrenaline (IC50 μg/ml)” value ([3]; Sommer et al.) was 0.050 µg/mL, the IC50 ([4]; Markowitz et al.) was 1110 nM and the IC50 ([4]; Sommer et al.) was 489 nM.

In the case of C[C@@H]1O[C@@H](O[C@@H]2[C@@H](O)[C@H](OCCc3ccc(O)c(O)c3)O[C@H](CO)[C@H]2OC(=O)/C=C/c2ccc(O)c(O)c2)[C@H](O)[C@H](O)[C@H]1O [acteoside], the “PT50 value” [5] is reported as 32.8 ± 0.3 h, the “share of the chemotaxis index of the control strain CL2122 reached” value ([6]; 200 μg/ml) is reported as “about 88%” and the Chemotaxis index ([6]; CL2355, 200 μg/ml, untreated 0.10 ± 0.04, control strain CL2122 0.50 ± 0.09) is reported as 0.45 ± 0.02 (p < 0.05).

In the case of CC(NC(C)(C)C)C(=O)c1cccc(Cl)c1 (stereo not shown) [bupropion], the “Fluorescence intensity [% of untreated group]” value [7] is reported as 68.2 ± 7.7 % of untreated group.
